The source of these data is patent US7718764B2, “Biologically active peptide [sequence] derivatives” (CMS Peptides Patent Holding Company Limited, priority 2004, dated 2010).

In the assay the test system is mice NK cell. The assay can be described thus: Mice NK cell activity in vivo (i.p. dosing 20 days, spleen effector cells vs YAC-1 target cells, MTT). Further details: species or system BALB/c mice. Conditions: for NK cell activity (%): Table 8, saline 76.0 ± 4.3. The procedure: Animals were randomized into two peptide groups (200 μg/kg/day and 50 μg/kg/day), Cyclosporine A group (10 mg/kg/day), and saline group (0.5 ml/day). Each group contained 10 mice, in which half were female and half were male. All test substances were dissolved in 0.5 ml saline and administered intraperitoneally once per day for 20 days. T-lymphocyte transformation and NK cell activity were examined on the day immediately following the last injection. YAC-1 target cells were brought to log phase and adjusted to a density of 1×10^5/ml. Mice spleen cells prepared in section 2.2.2 above were adjusted to a density of 4×10^6/ml and used as effector cells. The cell suspensions were inoculated onto 96 wells cell culture plates as follows: Effector cell wells: 100 μl spleen cell suspension+100 μl RPMI-1640 Assay wells: 100 μl spleen cell suspension+100 μl YAC-1 cell suspension Target cell wells: 100 μl YAC-1 cell suspension+100 μl RPMI-1640 Three assay wells and three effector cell wells were set up for each animal, and 12 target cell wells were set up per cell culture plate. The plates were incubated at 37° C., 5% CO2 for 4 hours, then MTT was added and the plates were read at OD 570 nm referenced at 630 nm with ELISA reader. NK cell activity (%)=1−[(assay wells OD−effector cell wells OD)/target cell wells OD]×100%

For the substance PLNPK [CMS-010.26], the “NK cell activity (%)” value is on record as 68.5 ± 7.2 % (50 μg/kg/day i.p. 20 days) and 67.7 ± 5.3 % (200 μg/kg/day i.p. 20 days). For the setting “at suitable dosage, vs saline control P<0.05”, the “Effect on mice NK cell activity in vivo (suppression)” value is recorded as “suppress”.
